Experimental data taken from patent US20250195536A1, “BICYCLOOCTANE KRAS INHIBITORS” (Incyte Corporation, priority 2023, published 2025).

Assays:
[1] = Caco2 assay (permeability, Papp A-B); format: in vitro ADME; settings: human, Caco-2, absorptive direction (A-B), 50 μM test compound, 4% BSA in receiver
How it was run: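 Absorptive (A-B) Papp: 50 μM test compound in HBSS added to apical side of 22-25-day Caco-2 monolayers (TEER 300 Ω·cm^2), receiver buffer containing 4% BSA. After 120 min at 37 °C, 5% CO2, both sides analysed by LCMS; Papp calculated from flux rate normalized to area and donor amount.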

KRAS G12D = KRAS G12D (Homo sapiens, UniProt P01116, G12D); test: GDP-GTP exchange assay (KRAS G12D); format: biochemical; settings: bodipy-GDP/GppNHp exchange with SOS1; 4 h pre-incubation, 2 h reaction;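 also: one dagger IC50 up to 100 nM and two daggers above 100 nM up to 1 μM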
How it was run: (§1)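 IC50 came from a four-parameter fit of fluorescence loss (485/520 nm) as SOS1 (150 nM) swapped bodipy-GDP for GppNHp (500 μM) on 2.5 nM KRAS, final concentrations. Compounds were pre-incubated 4 h at r.t. (pH 7.5 Hepes, 10 mM MgCl2); exchange ran 2 h (G12D) or 3 h (G12V).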

KRAS G12V = KRAS G12V (Homo sapiens, UniProt P01116, G12V); test: GDP-GTP exchange assay (KRAS G12V); format: biochemical; settings: bodipy-GDP/GppNHp exchange with SOS1; 3 h incubation after GppNHp-SOS1;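 also: one dagger IC50 up to 100 nM and two daggers above 100 nM up to 1 μM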
How it was run: as §1

Chain of KRAS G12V (P01116 1-188 isoform P01116-2 G12V): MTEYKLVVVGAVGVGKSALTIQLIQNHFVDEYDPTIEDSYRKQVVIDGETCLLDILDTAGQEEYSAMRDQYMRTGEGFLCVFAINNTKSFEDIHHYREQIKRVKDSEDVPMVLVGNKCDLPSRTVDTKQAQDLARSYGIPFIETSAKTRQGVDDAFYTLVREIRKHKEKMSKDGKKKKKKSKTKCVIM
Chain of KRAS G12D (P01116 1-188 isoform P01116-2 G12D): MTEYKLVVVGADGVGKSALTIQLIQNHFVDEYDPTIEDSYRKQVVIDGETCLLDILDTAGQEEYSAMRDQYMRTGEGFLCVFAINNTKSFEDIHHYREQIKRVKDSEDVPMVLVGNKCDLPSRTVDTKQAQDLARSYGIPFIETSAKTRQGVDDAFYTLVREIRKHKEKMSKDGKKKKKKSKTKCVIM

What does the source list for `Cc1nc2c(F)c(-c3cccc(Cl)c3Cl)c(CCC#N)cc2c2c1cc([C@H]1[C@@H]3COC(=O)[C@@H](C3)N1C(=O)C1CC1)n2[C@H]1[C@H]2CN[C@@H]1C2` (atropisomer, axis not shown; (Ra)) [Example 116, 3-((Ra)-1-((1R,4R,5S)-2-Azabicyclo[2.1.1]hexan-5-yl)-2-((1R,5R,7R)-6-(cyclopropanecarbonyl)-4-oxo-3-oxa-6-azabicyclo[3.2.1]octan-7-yl)-7-(2,3-dichlorophenyl)-6-fluoro-4-methyl-1H-pyrrolo[3,2-c]quinolin-8-yl)propanenitrile]?
Papp A→B at 120 min, 50 μM [1]: ≤ 0.5 ×10⁻⁶ cm/s; G12D_exchange (KRAS_G12D exchange assay IC50) (KRAS G12D): †; G12V_exchange (KRAS_G12V exchange assay IC50) (KRAS G12V): †

Which Papp A→B at 120 min, 50 μM [1] does the source give for `Cc1nc2c(F)c(-c3cccc(Cl)c3Cl)c(CCC#N)cc2c2c1cc([C@H]1CCN(c3ccccc3)CCN1C(=O)C1CC1)n2[C@H]1[C@H]2CN[C@@H]1C2` (atropisomer, axis not shown; (Ra)) [Example 117, 3-((Ra)-1-((1R,4R,5S)-2-Azabicyclo[2.1.1]hexan-5-yl)-2-((R)-4-(cyclopropanecarbonyl)-1-phenyl-1,4-diazepan-5-yl)-7-(2,3-dichlorophenyl)-6-fluoro-4-methyl-1H-pyrrolo[3,2-c]quinolin-8-yl)propanenitrile] here?
Its Papp A→B at 120 min, 50 μM is over 1 ×10⁻⁶ cm/s.

And the “G12D_exchange (KRAS_G12D exchange assay IC50)” value (shortened to “G12D_exchange”) (KRAS G12D)?
Its value is “†”.

And the “G12V_exchange (KRAS_G12V exchange assay IC50)” value (from here on “G12V_exchange”) (KRAS G12V)?
The value was “†”.

What does the source list for `Cc1nc2c(F)c(-c3cccc(Cl)c3Cl)c(CCC#N)cc2c2c1cc([C@H]1C[C@H]3C[C@H](CN3c3ccccn3)N1C(=O)C1CC1)n2[C@H]1[C@H]2CN[C@@H]1C2` (atropisomer, axis not shown; (Ra)) [Example 118, 3-((Ra)-1-((1R,4R,5S)-2-Azabicyclo[2.1.1]hexan-5-yl)-2-((1R,3R,5R)-2-(cyclopropanecarbonyl)-6-(pyridin-2-yl)-2,6-diazabicyclo[3.2.1]octan-3-yl)-7-(2,3-dichlorophenyl)-6-fluoro-4-methyl-1H-pyrrolo[3,2-c]quinolin-8-yl)propanenitrile]?
Papp A→B at 120 min, 50 μM [1]: ≤ 0.5 ×10⁻⁶ cm/s; G12D_exchange (KRAS_G12D exchange assay IC50) (KRAS G12D): †; G12V_exchange (KRAS_G12V exchange assay IC50) (KRAS G12V): †

With `Cc1nc2c(F)c(-c3cccc(Cl)c3Cl)c(CCC#N)cc2c2c1cc([C@H]1C[C@H]3C[C@H](CN3C(=O)c3ccccc3)N1C(=O)C1CC1)n2[C@H]1[C@H]2CN[C@@H]1C2` (atropisomer, axis not shown; (Ra)) [Example 119, 3-((Ra)-2-((1R,3R,5R)-6-Benzoyl-2-(cyclopropanecarbonyl)-2,6-diazabicyclo[3.2.1]octan-3-yl)-1-((1R,4R,5S)-2-azabicyclo[2.1.1]hexan-5-yl)-7-(2,3-dichlorophenyl)-6-fluoro-4-methyl-1H-pyrrolo[3,2-c]quinolin-8-yl)propanenitrile] as the compound, how does the Papp A→B at 120 min, 50 μM [1] read?
Its Papp A→B at 120 min, 50 μM is at most 0.5 ×10⁻⁶ cm/s.

And the “G12D_exchange” value (KRAS G12D)?
The value was “†”.

What about the “G12V_exchange” value (KRAS G12V) of the same compound?
The value was “†”.

Which results are given for `COC(=O)N1[C@@H]2C[C@@H](CN(c3cc(C(C)(F)F)ncn3)C2)[C@@H]1c1cc2c(C)nc3c(F)c(-c4cccc(Cl)c4Cl)c(CCC#N)cc3c2n1[C@H]1[C@H]2CN[C@@H]1C2` (atropisomer, axis not shown; (Ra)) [Example 124, Methyl (1 S,5R,7R)-7-((Ra)-1-((1R,4R,5S)-2-azabicyclo[2.1.1]hexan-5-yl)-8-(2-cyanoethyl)-7-(2,3-dichlorophenyl)-6-fluoro-4-methyl-1H-pyrrolo[3,2-c]quinolin-2-yl)-3-(6-(1,1-difluoroethyl)pyrimidin-4-yl)-3,6-diazabicyclo[3.2.1]octane-6-carboxylate]?
Papp A→B at 120 min, 50 μM [1]: ≤ 0.5 ×10⁻⁶ cm/s; G12D_exchange (KRAS_G12D exchange assay IC50) (KRAS G12D): †; G12V_exchange (KRAS_G12V exchange assay IC50) (KRAS G12V): †

Which Papp A→B at 120 min, 50 μM [1] does the source give for `Cc1nc2c(F)c(-c3cccc(Cl)c3Cl)c(CCC#N)cc2c2c1cc([C@H]1[C@H]3C[C@H](CN(c4ccc(C(F)(F)F)cn4)C3)N1C(=O)C1CC1)n2[C@H]1[C@H]2CN[C@@H]1C2` [Example 30, 3-((Ra)-1-((1R,4R,5S)-2-Azabicyclo[2.1.1]hexan-5-yl)-2-((1 S,5R,7R)-6-(cyclopropanecarbonyl)-3-(5-(trifluoromethyl)pyridin-2-yl)-3,6-diazabicyclo[3.2.1]octan-7-yl)-7-(2,3-dichlorophenyl)-6-fluoro-4-methyl-1H-pyrrolo[3,2-c]quinolin-8-yl)propanenitrile] here?
The Papp A→B at 120 min, 50 μM was at most 0.5 ×10⁻⁶ cm/s.

And the “G12D_exchange” value (KRAS G12D)?
Its value is “†”.

And the “G12V_exchange” value (KRAS G12V)?
The value was “†”.

Which Papp A→B at 120 min, 50 μM [1] does the source give for `Cc1nc2c(F)c(-c3cccc(Cl)c3Cl)c(CCC#N)cc2c2c1cc([C@H]1[C@H]3C[C@H](CN(c4ccnc(C(=O)N(C)C)c4)C3)N1C(=O)C1CC1)n2[C@H]1[C@H]2CN[C@@H]1C2` [Example 64, 4-((1S,5R,7R)-7-((Ra)-1-((1R,4R,5S)-2-azabicyclo[2.1.1]hexan-5-yl)-8-(2-cyanoethyl)-7-(2,3-dichlorophenyl)-6-fluoro-4-methyl-1H-pyrrolo[3,2-c]quinolin-2-yl)-6-(cyclopropanecarbonyl)-3,6-diazabicyclo[3.2.1]octan-3-yl)-N,N-dimethylpicolinamide] here?
Its Papp A→B at 120 min, 50 μM is at most 0.5 ×10⁻⁶ cm/s.

And the “G12D_exchange” value (KRAS G12D)?
Its value is “†”.

What about the “G12V_exchange” value (KRAS G12V) of the same compound?
The value was “†”.
